Data as given in patent US20250034171A1, “IMIDAZOPYRIDINE AMIDES AND RELATED COMPOUNDS FOR USE IN THE TREATMENT OF BACTERIAL INFECTIONS” (priority 2021, published 2025).
Values after ≈ are worked out from the molar mass of the structure shown. Where two headings read alike, the source gives them in different places.

Tests used:
[1] = Metabolic stability in liver microsomes (intrinsic clearance); type: in vitro ADME; details: microsomes
Protocol: The test compound was incubated under the generic condition (0.5 mg/ml microsomal protein, 1 mM NADPH, 1 mM MgCl2, and 0.1 M phosphate buffer, pH 7.4, 37° C.) at a defined substrate concentration (typically 1 μM) in liver microsomes of selected species across a time course (typically 0, 5, 10, 20, 40 and 60 minutes) at Cyprotex (Cheshire, UK). The liver microsomes, buffer and test compound will be pre-incubated for 5 minutes. The addition of the co-factor NADPH will initiate the reaction and the reaction was terminated by addition of acetonitrile. The samples were centrifuged prior to analysis by LC-MS/MS analysis. The relative amount of parent compound remaining in the active incubations vs. the control incubations (t=0 mins) for each compound was measured by peak area comparison. The in vitro metabolic half-life (t1/2) was calculated using the slope of the log-linear regression from the percentage parent compound remaining versus time relationship (κ), The in vitro intrinsic clearance (Cl^int) (μl/min/mg microsomal protein) was calculated using the in vitro metabolic half-life, incubation volume and the weight of microsomal protein in the incubation.

[2] = system: Mycobacterium tuberculosis strain H37Rv; test: Test 2: MIC determination against M. tuberculosis, resazurin fluorescence; type: cell-based; details: Test 2, M. tuberculosis H37Rv; for MIC90: read-out: Bacterial activity MIC90; for IC50: read-out: Bacterial activity pMIC50 (converted)
[3] = HTChem stab assay (chemical stability in buffer pH2, pH4 and pH7 vs DMSO reference); type: physicochemical
Protocol: HTChem stab assay was used to assess the chemical stability of the compounds. 72 h stirring at rt in a buffer pH2, pH4 and pH7 vs a reference DMSO solution. HTChem stab assay is based on the handbook of Pharmaceutical Stress Testing, Predicting Drug Degradation, second edition, authors Baertschi, Alsante, Reed ISBN 978-143980179-6.
Compounds were plated (1 μl 10 mM DMSO stock in 96 well plate (DMSO control+3 pH conditions), one plate per condition).
200 μL of respectively DMSO, Buffer/DMSO mix pH2, Buffer/DMSO mix pH4 and Buffer/DMSO mix pH7 was added.
After 72 h shaking (300 rpm) at room temperature the samples were analysed by LC/UV/MS. Chromatograms of samples (stability conditions) were compared with the chromatograms of control sample (DMSO). Extra peaks were flagged and identified by mass spectrometry. Sample purity (reference included) were reported.
• pH3 buffer: For 11; weigh 4.14 g NaH2PO4·H2O, add 600 ml H2O, add H3PO4 to pH3, add H2O to 1000 ml. Filter over 0.2 μm and store at 4° C. Expires after 30 days. • pH6 buffer: For 1 l; weigh 4.14 g NaH2PO4·H2O, add 600 ml H2O, add 1N NaOH to pH6, add H2O to 1000 ml. Filter over […] and store at 4° C. Expires after 30 days.
• pH2 Buffer/DMSO (StabSolvent): mix 2 parts of HCl 0.1N with 1 part of DMSO • pH4 Buffer/DMSO (StabSolvent): mix 2 parts of buffer pH3 with 1 part of DMSO • pH7 Buffer/DMSO (StabSolvent): mix 2 parts of buffer pH6 with 1 part of DMSO measure pH prior to use.
Instrument: Acquity UPLC; Column: Acquity HSS T3, 50 mm length×2.1 mm i.d., 1.8 μm particle size. Detectors: PDA (250-350 nm) and SQD2 (90-1500m/z). Mobile phase A: 0.1% Formic acid in water; Mobile phase B: 0.1% Formic acid in Acetonitrile.
Injection volume: 5 μL, flow rate 0.6 mL/min.
Data processing including peak integration and identification was done with Waters OpenLynx software.

[4] = Mycobacterium tuberculosis, H37RV

Structure (SMILES) | Metabolic Stability (liver microsome intrinsic clearance) Clearance (mouse, μl/min./mg protein) ([1]; mouse) [μl/min./mg protein] | Metabolic Stability Half life (mouse, min.) ([1]; mouse) [h] | Bacterial activity pMIC50 [2] | MIC90 [2] [µM] | MIC90 [2, 4] [µM] | IC50 [2, 4] [pM] | Chemical stability data, Vehicle DMSO ([3]; 72 h, 50 µM) [%] | Chemical stability data, Buffer pH2 ([3]; 72 h, 50 µM, pH 2) [%] | Chemical stability data, Buffer pH4 ([3]; 72 h, 50 µM, pH 4) [%] | Chemical stability data, Buffer pH7 ([3]; 72 h, 50 µM, pH 7) [%] | further results
CCc1nc2ncc(C)cn2c1C(=O)NCc1ccc(-c2nc3n(n2)CCC(C(F)(F)F)C3)cc1 (single isomer, unassigned) [Compound 1b] | 7.8 | 2.97 | 8.576 | 0.007 (≈ 0.00338 µg/mL) |  |  |  |  |  |  | Metabolic Stability (liver microsome intrinsic clearance) Clearance (human, μl/min./mg protein) ([1]; human): 7.81 μl/min./mg protein; Metabolic Stability Half life (human, min.) ([1]; human): 2.97 h
CCc1nc2ncccn2c1C(=O)NCc1ccc(-c2nc3n(n2)CC[C@@H](C(F)(F)F)C3)c(F)c1 (single isomer, unassigned) [Compound 73] | <7.7 | >3 | 7.18 | 0.35 (≈ 0.171 µg/mL) |  |  |  |  |  |  | 
CCc1nc2ncccn2c1C(=O)NCc1ccc(-c2nc3n(n2)CC[C@H](C(F)(F)F)C3)c(F)c1 (single isomer, unassigned) [Compound 74] | <7.7 | >3 | 6.94 | >0.5 |  |  |  |  |  |  | 
CCc1nc2n(c1C(=O)NCc1ccc(-c3nc4n(n3)CC[C@H](C(F)(F)F)C4)c(F)c1)CCCC2 (single isomer, unassigned) [Compound 77] | 26.1 | 0.885 | 7.6 | 0.098 (≈ 0.0481 µg/mL) |  |  |  |  |  |  | 
CCc1nc2ncc(C)cn2c1C(=O)NCc1ccc(-c2cn3c(n2)CC(C(F)(F)F)CC3)cc1 (stereo not shown) [Compound 3ab] |  |  |  |  | 0.009 (≈ 0.00434 µg/mL) | 3550 |  |  |  |  | half-life at 1 µM ([1]; human, pH 7.4, Metabolic Stability Half life (human, min.)): 1.54 h; microsomal CLint at 1 µM ([1]; human, pH 7.4, human liver microsomes, read-out: Metabolic Stability (liver microsome intrinsic clearance) Clearance (human, μl/min./mg protein)): 15 µL/min/mg; half-life at 1 µM ([1]; mouse, pH 7.4, Metabolic Stability Half life (mouse, min.)): 1.7 h; microsomal CLint at 1 µM ([1]; mouse, pH 7.4, mouse liver microsomes, read-out: Metabolic Stability (liver microsome intrinsic clearance) Clearance (mouse, μl/min./mg protein)): 13.6 µL/min/mg
CCc1nc2ncc(CN)cn2c1C(=O)NCc1ccc(-c2nc3n(n2)CCC(C(F)(F)F)C3)cc1 (stereo not shown) [Compound 16ab] |  |  |  |  |  | > 500000 | 77 | 74 | 74 | 80 | 
CCc1nc2ncc(C)cn2c1C(=O)NCc1ccc(-c2nc3n(c2C)CCC(C(F)(F)F)C3)cc1 (stereo not shown) [Compound 19ab] |  |  |  |  | 0.047 (≈ 0.0233 µg/mL) | 11500 | 98 | 98 | 98 | 98 | 
CCc1nc2ncc(C)cn2c1C(=O)NCc1ccc(-c2nn3c(c2C)CC(C(F)(F)F)CC3)cc1 (stereo not shown) [Compound 21ab] |  |  |  |  | 0.011 (≈ 0.00546 µg/mL) | 3490 | 100 | 100 | 100 | 100 | 
CCc1nc2ncc(C)cn2c1C(=O)NCc1ccc(-c2nc3n(n2)CCC(C2CC2)C3)cc1 (stereo not shown) [Compound 27ab] |  |  |  |  | 0.014 (≈ 0.00638 µg/mL) | 4610 | 100 | 100 | 100 | 100 | 
CCCC1CCn2nc(-c3ccc(CNC(=O)c4c(CC)nc5ncc(C)cn45)cc3)nc2C1 (stereo not shown) [Compound 28ab] |  |  |  |  | 0.011 (≈ 0.00503 µg/mL) | 3660 | 100 | 100 | 100 | 100 | 
CCc1nc2ncc(C)cn2c1C(=O)NCc1ccc(-c2nc3n(n2)CCCC3)c(F)c1 [Compound 32ab] |  |  |  |  | 0.248 (≈ 0.108 µg/mL) | 79800 | 100 | 100 | 100 | 100 | 
CCc1nc2ncc(C)cn2c1C(=O)NCc1ccc(-c2nc3n(n2)CCC(OC(F)(F)F)C3)cc1 (stereo not shown) [Compound 33ab] |  |  |  |  | 0.039 (≈ 0.0195 µg/mL) | 12700 | 100 | 64 | 100 | 100 | 
O=C(NCc1ccc(-c2cn3c(n2)CC(C(F)(F)F)CC3)nc1)c1c(C(F)(F)F)nc2ccccn12 (stereo not shown) [Compound 36ab] |  |  | <6.301 |  |  |  |  |  |  |  | Chemical stability data, Buffer pH2 ([3]; buffer pH2/DMSO, 72 h stirring at rt): 100%; Chemical stability data, Buffer pH4 ([3]; buffer pH4/DMSO, 72 h stirring at rt): 100%; Chemical stability data, Buffer pH7 ([3]; buffer pH7/DMSO, 72 h stirring at rt): 100%; Chemical stability data, Vehicle DMSO ([3]; reference DMSO solution, 72 h stirring at rt): 100%
